12 compounds from US10399940B2, “Substituted pyrrolidines and methods of use” (AbbVie S.à.r.l., priority 2016, dated 2019) can be followed below.

Molecules are shown by their SMILES. Read-outs that look alike come from different tables or passages of the source.

The assay has as its target T1, F508delCFTR (Homo sapiens, UniProt P13569, DEL508-508).
T1 construct: expressed in transfected cells; host or cells: CFBE41o- (human lung derived epithelial cell line), doxycycline-inducible expression
Put plainly: Cell Surface Expression-Horse Radish Peroxidase (CSE-HRP) assay. In kind it is cell-based. The following applies: CFBE41o-F508delCFTR-HRP cells; for Maximum % activity (with co-corrector): with co-corrector (2 μM); for Maximum % activity (with co-corrector) / Maximum % activity (without co-corrector): normalized to on-plate positive control, highest concentration 20 μM. The method, boiled down:
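CFBE41o- cells expressed F508delCFTR with HRP in the fourth exofacial loop, induced by 0.5 μg/mL doxycycline for 72 h at 37 °C. Compounds alone or with 2 μM co-corrector ran 18–24 h at 33 °C, 8-point 3-fold from 20 μM. Washed-cell luminol luminescence was normalized to DMSO and positive control, fitted sigmoidally for EC50 (three plates).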

The mark [1] stands for this setting: test compound without co-corrector, 18-24 hours at 33° C., read-out: EC50 (without co-corrector).
[2] abbreviates: with co-corrector (2 μM of 3-[(2R,4R)-4-({[1-(2,2-difluoro-1,3-benzodioxol-5-yl)cyclopropyl]carbonyl}amino)-7-methoxy-3,4-dihydro-2H-chromen-2-yl]benzoic acid), read-out: EC50 (with co-corrector).

T1 sequence (P13569 with tags, fused parts or gaps DEL508-508): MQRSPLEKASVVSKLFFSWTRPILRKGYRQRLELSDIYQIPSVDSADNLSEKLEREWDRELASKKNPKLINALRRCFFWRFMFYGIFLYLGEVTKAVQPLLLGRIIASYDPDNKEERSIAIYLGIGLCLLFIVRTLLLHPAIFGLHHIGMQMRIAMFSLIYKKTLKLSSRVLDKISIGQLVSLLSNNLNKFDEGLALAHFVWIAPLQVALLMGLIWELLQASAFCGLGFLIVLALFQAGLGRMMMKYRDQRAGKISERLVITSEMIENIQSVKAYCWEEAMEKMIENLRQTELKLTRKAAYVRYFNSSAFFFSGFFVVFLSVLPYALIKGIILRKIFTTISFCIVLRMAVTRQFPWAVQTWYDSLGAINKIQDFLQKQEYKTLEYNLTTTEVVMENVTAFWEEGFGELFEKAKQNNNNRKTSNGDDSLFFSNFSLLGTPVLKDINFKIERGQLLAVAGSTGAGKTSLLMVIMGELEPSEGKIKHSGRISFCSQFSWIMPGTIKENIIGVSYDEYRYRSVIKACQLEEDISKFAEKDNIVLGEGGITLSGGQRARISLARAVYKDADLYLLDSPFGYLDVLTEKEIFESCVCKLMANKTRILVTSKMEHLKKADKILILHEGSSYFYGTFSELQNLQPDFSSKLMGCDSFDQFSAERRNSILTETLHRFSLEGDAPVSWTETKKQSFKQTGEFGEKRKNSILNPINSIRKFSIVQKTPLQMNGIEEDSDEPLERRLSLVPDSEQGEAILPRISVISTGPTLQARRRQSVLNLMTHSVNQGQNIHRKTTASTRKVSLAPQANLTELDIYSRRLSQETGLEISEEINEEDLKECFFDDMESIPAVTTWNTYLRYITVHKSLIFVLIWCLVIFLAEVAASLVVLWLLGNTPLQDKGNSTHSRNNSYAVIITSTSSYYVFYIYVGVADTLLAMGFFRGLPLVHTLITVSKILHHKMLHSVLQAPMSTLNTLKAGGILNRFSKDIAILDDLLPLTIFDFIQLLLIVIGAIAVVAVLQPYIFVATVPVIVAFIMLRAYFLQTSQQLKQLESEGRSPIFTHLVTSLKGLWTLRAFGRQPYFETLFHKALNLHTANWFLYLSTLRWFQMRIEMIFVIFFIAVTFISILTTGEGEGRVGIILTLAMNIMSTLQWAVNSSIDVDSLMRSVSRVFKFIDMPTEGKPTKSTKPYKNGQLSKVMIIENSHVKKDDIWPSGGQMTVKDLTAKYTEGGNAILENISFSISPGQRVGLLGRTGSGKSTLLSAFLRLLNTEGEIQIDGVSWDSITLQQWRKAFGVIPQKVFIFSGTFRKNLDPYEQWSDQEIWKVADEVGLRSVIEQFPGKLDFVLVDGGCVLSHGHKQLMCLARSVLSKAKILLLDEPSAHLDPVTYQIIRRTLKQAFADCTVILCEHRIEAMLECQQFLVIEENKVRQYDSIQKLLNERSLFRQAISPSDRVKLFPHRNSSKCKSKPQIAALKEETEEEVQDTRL

The EC50 is the concentration needed to bring the measured effect to its halfway point. Take `COc1ncc(C2CC3CCC2C3)cc1CO[C@H]1[C@H](C(C)(C)C)[C@@H](C(=O)O)N(C(=O)C2CCCCC2)[C@H]1c1ccccc1F` (stereo partly drawn) [Example 58, (2S,3R,4S,5S)-4-{[5-(bicyclo[2.2.1]heptan-2-yl)-2-methoxypyridin-3-yl]methoxy}-3-tert-butyl-1-(cyclohexanecarbonyl)-5-(2-fluorophenyl)pyrrolidine-2-carboxylic acid]: the “Maximum % activity (with co-corrector)” value is listed as “+++ (≥350)”; the “Maximum % activity (without co-corrector)” value was “++ (≥100 and <200)”. In addition, the EC50 under setting [1] was less than 1 µM. Moreover, the EC50 under setting [2] is less than 1 µM.

On to `C=CCOC(=O)N1[C@H](C(=O)O)[C@@H](C(C)(C)C)[C@H](OCc2cc(C(F)(F)F)cnc2OC)[C@@H]1c1ccccc1` [Example 90, (2S,3R,4S,5S)-3-tert-butyl-4-{[2-methoxy-5-(trifluoromethyl)pyridin-3-yl]methoxy}-5-phenyl-1-{[(prop-2-en-1-yl)oxy]carbonyl}pyrrolidine-2-carboxylic acid], for which the “Maximum % activity (with co-corrector)” value is listed as “+++ (≥350)” and the “Maximum % activity (without co-corrector)” value is “+ (<100)”. Moreover, the EC50 under setting [1] was in the range of 1 to 10 µM. The EC50 under setting [2] lay within 1 to 10 µM.

As for `COc1ncc(C2CCC2)cc1CO[C@H]1[C@H](C(C)(C)C)[C@@H](C(=O)O)N(C(=O)C2CCC2)[C@H]1c1cccnc1OC(C)C` [Example 161, (2S,3R,4S,5S)-3-tert-butyl-1-(cyclobutanecarbonyl)-4-[(5-cyclobutyl-2-methoxypyridin-3-yl)methoxy]-5-{2-[(propan-2-yl)oxy]pyridin-3-yl}pyrrolidine-2-carboxylic acid], the “Maximum % activity (with co-corrector)” value is recorded as “+++ (≥350)” and the “Maximum % activity (without co-corrector)” value is given as “+ (<100)”. In addition, the EC50 under setting [1] lay in the range of 1 to 10 µM. Besides, under setting [2], the EC50 is 1 to 10 µM.

With `COc1ccc(Cl)cc1COC1[C@@H](c2ccccc2)N(C(=O)OC(C)C)[C@@H](C(=O)O)[C@@H]1C(C)(C)C` (mixture of isomers) [Example 17, rac-(2R,3S,5R)-3-tert-butyl-4-[(5-chloro-2-methoxyphenyl)methoxy]-5-phenyl-1-{[(propan-2-yl)oxy]carbonyl}pyrrolidine-2-carboxylic acid], the “Maximum % activity (with co-corrector)” value is “+++ (≥350)”; the “Maximum % activity (without co-corrector)” value was “++ (≥100 and <200)”. Besides, under setting [1], the EC50 was 1 to 10 µM. The EC50 under setting [2] lay in the range of 1 to 10 µM.

On to `COc1ccc(C(C)(C)C)cc1CO[C@H]1[C@H](C(C)(C)C)[C@@H](C(=O)O)N(C(=O)[C@@H]2CCCO2)[C@H]1c1ccccc1Br` [Example 162, (2S,3R,4S,5S)-5-(2-bromophenyl)-3-tert-butyl-4-[(5-tert-butyl-2-methoxyphenyl)methoxy]-1-[(2S)-oxolane-2-carbonyl]pyrrolidine-2-carboxylic acid], for which the “Maximum % activity (with co-corrector)” value is on record as “+++ (≥350)” and the “Maximum % activity (without co-corrector)” value is given as “+++ (≥200)”. The EC50 under setting [1] lay within 1 to 10 µM. Besides, the EC50 under setting [2] is less than 1 µM.

Turning to `COc1ncc(C2=CCOCC2)cc1CO[C@H]1[C@H](C(C)(C)C)[C@@H](C(=O)O)N(C(=O)OC(C)C)[C@H]1c1ccccc1` [Example 69, (2S,3R,4S,5S)-3-tert-butyl-4-{[5-(3,6-dihydro-2H-pyran-4-yl)-2-methoxypyridin-3-yl]methoxy}-5-phenyl-1-{[(propan-2-yl)oxy]carbonyl}pyrrolidine-2-carboxylic acid], the “Maximum % activity (with co-corrector)” value is “++ (≥150 and <350)”; the “Maximum % activity (without co-corrector)” value was “+ (<100)”. Besides, under setting [1], the half-maximal effective concentration (EC50) fell in the range of 1 to 10 µM. Further, the EC50 under setting [2] fell in the range of 1 to 10 µM.

Turning to `COc1ncc(C(F)(F)F)cc1CO[C@H]1[C@H](C(C)(C)C)[C@@H](C(=O)O)N(C(=O)OC(C)C)[C@H]1c1ccccc1C(C)C` [Example 87, (2S,3R,4S,5S)-3-tert-butyl-4-{[2-methoxy-5-(trifluoromethyl)pyridin-3-yl]methoxy}-1-{[(propan-2-yl)oxy]carbonyl}-5-[2-(propan-2-yl)phenyl]pyrrolidine-2-carboxylic acid], the “Maximum % activity (with co-corrector)” value was “+++ (≥350)”; the “Maximum % activity (without co-corrector)” value was “++ (≥100 and <200)”. For the same compound, under setting [1], the 50% effective concentration (EC50) fell in the range of 1 to 10 µM. Also, under setting [2], the EC50 was 1 to 10 µM.

For `COc1ncc(C(F)(F)F)cc1CO[C@H]1[C@H](C(C)(C)C)[C@@H](C(=O)O)N(C(=O)OC(C)C)[C@H]1c1ccccc1F` [Example 73, (2S,3R,4S,5S)-3-tert-butyl-5-(2-fluorophenyl)-4-{[2-methoxy-5-(trifluoromethyl)pyridin-3-yl]methoxy}-1-{[(propan-2-yl)oxy]carbonyl}pyrrolidine-2-carboxylic acid], the “Maximum % activity (with co-corrector)” value is recorded as “+++ (≥350)”; the “Maximum % activity (without co-corrector)” value was “++ (≥100 and <200)”. For the same compound, the EC50 under setting [1] was in the range of 1 to 10 µM. Further, the EC50 under setting [2] was less than 1 µM.

With `COc1ncc(C(F)(F)F)cc1CO[C@H]1[C@H](C(C)(C)C)[C@@H](C(=O)O)N(C(=O)[C@@H]2CCCO2)[C@H]1c1ccccc1C1CC1` [Example 112, (2S,3R,4S,5S)-3-tert-butyl-5-(2-cyclopropylphenyl)-4-{[2-methoxy-5-(trifluoromethyl)pyridin-3-yl]methoxy}-1-[(2S)-oxolane-2-carbonyl]pyrrolidine-2-carboxylic acid], the “Maximum % activity (with co-corrector)” value is “+++ (≥350)”; the “Maximum % activity (without co-corrector)” value was “++ (≥100 and <200)”. Further, the EC50 under setting [1] fell in the range of 1 to 10 µM. Besides, the EC50 under setting [2] is less than 1 µM.

For the compound `COc1ncc(C(F)(F)F)cc1CO[C@H]1[C@H](C(C)(C)C)[C@@H](C(=O)O)N(C(=O)[C@@H]2CCCCO2)[C@H]1c1cccc2ccoc12` [Example 212, (2S,3R,4S,5S)-5-(1-benzofuran-7-yl)-3-tert-butyl-4-{[2-methoxy-5-(trifluoromethyl)pyridin-3-yl]methoxy}-1-[(2S)-oxane-2-carbonyl]pyrrolidine-2-carboxylic acid], the “Maximum % activity (with co-corrector)” value is on record as “+++ (≥350)”; the “Maximum % activity (without co-corrector)” value is “++ (≥100 and <200)”. The EC50 under setting [1] is 1 to 10 µM. Moreover, the EC50 under setting [2] was 1 to 10 µM.

`COc1ccc(C(F)(F)F)cc1[C@@H](C)CO[C@H]1[C@H](C(C)(C)C)[C@@H](C(=O)O)N(C(=O)[C@@H]2CCCCO2)[C@H]1c1ccccc1C` [Example 272, (2S,3R,4S,5S)-3-tert-butyl-4-{(2R)-2-[2-methoxy-5-(trifluoromethyl)phenyl]propoxy}-5-(2-methylphenyl)-1-[(2S)-oxane-2-carbonyl]pyrrolidine-2-carboxylic acid]: the “Maximum % activity (with co-corrector)” value was “+++ (≥350)” and the “Maximum % activity (without co-corrector)” value is reported as “+++ (≥200)”. The EC50 under setting [1] was less than 1 µM. Under setting [2], the EC50 is less than 1 µM.

For `COc1ncc(C(F)(F)F)cc1CO[C@H]1[C@H](C(C)(C)C)[C@@H](C(=O)O)N(C(=O)[C@@H]2CCOC2)[C@H]1c1ccccc1C(C)C` [Example 111, (2S,3R,4S,5S)-3-tert-butyl-4-{[2-methoxy-5-(trifluoromethyl)pyridin-3-yl]methoxy}-1-[(3R)-oxolane-3-carbonyl]-5-[2-(propan-2-yl)phenyl]pyrrolidine-2-carboxylic acid], the “Maximum % activity (with co-corrector)” value is reported as “+++ (≥350)”; the “Maximum % activity (without co-corrector)” value is “++ (≥100 and <200)”. Moreover, the EC50 under setting [1] lay in the range of 1 to 10 µM. Under setting [2], the EC50 was in the range of 1 to 10 µM.
